Values quoted from earlier work as cited in PMC8513935.
One block for each compound: values may come before it.

Legend:
[1] = derived by the authors as gas->solvent minus gas->water (a hypothetical dry solvent; the ESI), not a two-phase measurement
[2] = experimental, compiled by the authors from the literature (the ESI cites the sources)
[3] = log P octanol/water from commercial databases, averaged (the ESI); conditions: Octanol (wet), 25 C

log K of transfer, water to solvent ([1]; 1,2-Dichloroethane, 25 C): 1.3 log10 K | log K of transfer, water to solvent ([1]; 2-Methylpropan-1-ol, 25 C): 1.28 log10 K | log K of transfer, water to solvent ([1]; 2-Methylpropan-2-ol, 25 C): 1.3 log10 K | log K of transfer, water to solvent ([1]; Acetone, 25 C): 1.5 log10 K | log K of transfer, water to solvent ([1]; Butan-1-ol, 25 C): 1.28 log10 K | log K of transfer, water to solvent ([1]; Butan-2-ol, 25 C): 1.26 log10 K | log K of transfer, water to solvent ([1]; CCl4, 25 C): 1.51 log10 K | log K of transfer, water to solvent ([1]; Chlorobenzene, 25 C): 1.39 log10 K | log K of transfer, water to solvent ([1]; Cyclohexanone, 25 C): 1.34 log10 K | log K of transfer, water to solvent ([1]; Ethanol, 25 C): 1.35 log10 K | log K of transfer, water to solvent ([1]; Heptan-1-ol, 25 C): 1.25 log10 K | log K of transfer, water to solvent ([1]; Hexadecane, 25 C): 1.23 log10 K | log K of transfer, water to solvent ([1]; Hexan-1-ol, 25 C): 1.26 log10 K | log K of transfer, water to solvent ([1]; Hexane, 25 C): 1.41 log10 K | log K of transfer, water to solvent ([1]; Methanol, 25 C): 1.35 log10 K | log K of transfer, water to solvent ([1]; Octan-1-ol(dry), 25 C): 1.22 log10 K | log K of transfer, water to solvent ([1]; Pentan-1-ol, 25 C): 1.29 log10 K | log K of transfer, water to solvent ([1]; Propan-1-ol, 25 C): 1.32 log10 K | log K of transfer, water to solvent ([1]; Propan-2-ol, 25 C): 1.27 log10 K | log K of transfer, water to solvent ([1]; Tetrahydrofuran, 25 C): 1.54 log10 K | log K of transfer, gas to solvent ([2]; 1,2-Dichloroethane, 25 C): 0.36 log10 K | log K of transfer, gas to solvent ([2]; 2-Methylpropan-1-ol, 25 C): 0.34 log10 K | log K of transfer, gas to solvent ([2]; 2-Methylpropan-2-ol, 25 C): 0.36 log10 K | log K of transfer, gas to solvent ([2]; Butan-1-ol, 25 C): 0.34 log10 K | log K of transfer, gas to solvent ([2]; Butan-2-ol, 25 C): 0.32 log10 K | log K of transfer, gas to solvent ([2]; CCl4, 25 C): 0.57 log10 K | log K of transfer, gas to solvent ([2]; Chlorobenzene, 25 C): 0.45 log10 K | log K of transfer, gas to solvent ([2]; Cyclohexanone, 25 C): 0.401 log10 K | log K of transfer, gas to solvent ([2]; Ethanol, 25 C): 0.41 log10 K | log K of transfer, gas to solvent ([2]; Heptan-1-ol, 25 C): 0.312 log10 K | log K of transfer, gas to solvent ([2]; Hexadecane, 25 C): 0.289 log10 K | log K of transfer, gas to solvent ([2]; Hexan-1-ol, 25 C): 0.318 log10 K | log K of transfer, gas to solvent ([2]; Hexane, 25 C): 0.471 log10 K | log K of transfer, gas to solvent ([2]; Methanol, 25 C): 0.41 log10 K | log K of transfer, gas to solvent ([2]; Octan-1-ol, 25 C): 0.28 log10 K | log K of transfer, gas to solvent ([2]; Pentan-1-ol, 25 C): 0.35 log10 K | log K of transfer, gas to solvent ([2]; Propan-1-ol, 25 C): 0.38 log10 K | log K of transfer, gas to solvent ([2]; Propan-2-ol, 25 C): 0.33 log10 K | log K of transfer, gas to solvent ([2]; Propanone, 25 C): 0.56 log10 K | log K of transfer, gas to solvent ([2]; Tetrahydrofuran, 25 C): 0.6 log10 K | log K of transfer, gas to solvent ([2]; Water, 25 C): -0.94 log10 K | log K of transfer, water to solvent [3]: 1.13 log10 K
Structure (SMILES): C=C

Structure (SMILES): Cc1ccc(C)cc1
log K of transfer, water to solvent ([1]; 1,2-Dichloroethane, 25 C): 3.78 log10 K | log K of transfer, water to solvent ([1]; 2-Methylpropan-1-ol, 25 C): 3.03 log10 K | log K of transfer, water to solvent ([1]; CCl4, 25 C): 3.61 log10 K | log K of transfer, water to solvent ([1]; Cyclohexane, 25 C): 3.27 log10 K | log K of transfer, water to solvent ([1]; Ethanol, 25 C): 3.14 log10 K | log K of transfer, water to solvent ([1]; Hexadecane, 25 C): 3.25 log10 K | log K of transfer, water to solvent ([1]; Octan-1-ol(dry), 25 C): 3.2 log10 K | log K of transfer, gas to solvent ([2]; 1,2-Dichloroethane, 25 C): 4.37 log10 K | log K of transfer, gas to solvent ([2]; 2-Methylpropan-1-ol, 25 C): 3.62 log10 K | log K of transfer, gas to solvent ([2]; CCl4, 25 C): 4.2 log10 K | log K of transfer, gas to solvent ([2]; Cyclohexane, 25 C): 3.86 log10 K | log K of transfer, gas to solvent ([2]; Ethanol, 25 C): 3.73 log10 K | log K of transfer, gas to solvent ([2]; Hexadecane, 25 C): 3.84 log10 K | log K of transfer, gas to solvent ([2]; Octan-1-ol, 25 C): 3.79 log10 K | log K of transfer, gas to solvent ([2]; Water, 25 C): 0.59 log10 K | log K of transfer, water to solvent [3]: 3.15 log10 K

log K of transfer, water to solvent ([1]; Decan-1-ol, 25 C): 7.84 log10 K | log K of transfer, water to solvent ([1]; Di-n-butyl ether, 25 C): 7.61 log10 K | log K of transfer, water to solvent ([1]; Diethyl Ether, 25 C): 7.89 log10 K | log K of transfer, water to solvent ([1]; Hexadecane, 25 C): 6.63 log10 K | log K of transfer, water to solvent ([1]; Hexan-1-ol, 25 C): 7.92 log10 K | log K of transfer, water to solvent ([1]; Octan-1-ol(dry), 25 C): 7.88 log10 K | log K of transfer, water to solvent ([1]; Propan-2-ol, 25 C): 8.03 log10 K | log K of transfer, gas to solvent ([2]; Decan-1-ol, 25 C): 9.86 log10 K | log K of transfer, gas to solvent ([2]; Di-n-butyl ether, 25 C): 9.63 log10 K | log K of transfer, gas to solvent ([2]; Diethyl Ether, 25 C): 9.91 log10 K | log K of transfer, gas to solvent ([2]; Hexadecane, 25 C): 8.65 log10 K | log K of transfer, gas to solvent ([2]; Hexan-1-ol, 25 C): 9.93 log10 K | log K of transfer, gas to solvent ([2]; Octan-1-ol, 25 C): 9.9 log10 K | log K of transfer, gas to solvent ([2]; Propan-2-ol, 25 C): 10 log10 K | log K of transfer, gas to solvent ([2]; Water, 25 C): 2.02 log10 K | log K of transfer, water to solvent [3]: 7.32 log10 K
Structure (SMILES): CCCCCCCCCCCCCCCCO
